SMILES strings stand for the structures. Active and inactive are the calls of the source. No cut-off for these calls is given here.

The text below walks through data of ChEMBL document CHEMBL6153118, “Structure Optimization of Natural Product Catalpol to Obtain Novel and Potent Analogs against Heart Failure” (J Med Chem, 2025).

Test [1] deals with Mus musculus. In words: Inhibition of cardiac fibrosis in ISO-induced heart failure C57BL/6J mouse at 5 to 20 mg/kg/day, po for 14 days. In kind it is functional, organism-based. The following applies: dose 5-20 mg/kg/day, time 14.0 day.
Test [2] relates to H9c2. Kind of test: Cytoprotective activity against OGD-induced myocardial ischemic injury in rat H9c2 cells assessed as decrease in ROS level at 5 to 50 uM preincubated for 12 hrs followed by exposure to OGD condition for 3 hrs by DCFH-DA probe based analysis. It is filed as functional, cell-based. The following applies: dose 5-50 µM, time 15.0 hrs.
Test [3] relates to H9c2. Kind of test: Cytoprotective activity against OGD-induced myocardial ischemic injury in rat H9c2 cells assessed as decrease in LDH level at 5 to 50 uM preincubated for 12 hrs followed by exposure to OGD condition for 3 hrs by UV absorption analysis. The following applies: dose 5-50 µM, time 15.0 hrs. It is filed as functional, cell-based.
Test [4] has as its system Mus musculus. In words: Cardioprotective activity in ISO-induced heart failure C57BL/6J mouse assessed as ejection fraction in heart at 20 mg/kg/day, po for 14 days by echocardiography (reference value: 49.55 +/- 2.41 %). In kind it is functional. The following applies: time 14 day.
In test [5] the test system is Mus musculus. Kind of test: Cardioprotective activity in ISO-induced heart failure C57BL/6J mouse assessed as fractional shortening in heart at 20 mg/kg/day, po for 14 days by echocardiography (reference value: 24.49 +/- 1.49 %). In kind it is functional. The following applies: time 14 day.
Test [6] concerns H9c2. Kind of test: Cytoprotective activity against OGD-induced myocardial ischemic injury in rat H9c2 cells assessed as cell viability at 5 uM preincubated for 12 hrs followed by exposure to OGD condition for 3 hrs by CCK8 assay (reference value: 49.23 to 50.05 %). In kind it is functional. The following applies: time 15 hrs, read-out: Activity. A general note: Formazan colour is commonly taken as a measure of viable cells.

Test [7] deals with H9c2. In words: Cytoprotective activity against OGD-induced myocardial ischemic injury in rat H9c2 cells assessed as cell viability at 50 uM preincubated for 12 hrs followed by exposure to OGD condition for 3 hrs by CCK8 assay (reference value: 49.23 to 50.05 %). In kind it is functional. To be noted: time 15 hrs, read-out: Activity.
In test [8] the test system is Mus musculus. In words: Improvement in motor ability in ISO-induced heart failure C57BL/6J mouse assessed as increase in grip strength at 5 to 20 mg/kg/day, po for 14 days. To be noted: dose 5-20 mg/kg/day, time 14.0 day. It is filed as functional, organism-based.
The test system of test [9] is Mus musculus. Kind of test: Improvement in motor ability in ISO-induced heart failure C57BL/6J mouse assessed as increase in time of remote motion with rotarod at 5 to 20 mg/kg/day, po for 14 days. In kind it is functional, organism-based. The following applies: dose 5-20 mg/kg/day, time 14.0 day.
Test [10] deals with Mus musculus. In words: Inhibition of cardiomyocyte hypertrophy in ISO-induced heart failure C57BL/6J mouse at 5 to 20 mg/kg/day, po for 14 days. It is filed as functional, organism-based. The following applies: dose 5-20 mg/kg/day, time 14.0 day.
Test [11] concerns H9c2. Kind of test: Cytoprotective activity against OGD-induced myocardial ischemic injury in rat H9c2 cells assessed as decrease in cell death at 5 to 50 uM preincubated for 12 hrs followed by exposure to OGD condition for 3 hrs by crystal violet staining based analysis. The following applies: dose 5-50 µM, time 15.0 hrs. It is filed as functional.
In test [12] the test system is Mus musculus. Kind of test: Cardioprotective activity in ISO-induced heart failure C57BL/6J mouse assessed as ejection fraction in heart at 5 mg/kg/day, po for 14 days by echocardiography (reference value: 49.55 +/- 2.41 %). It is filed as functional. The following applies: time 14 day.
Test [13] has as its system Cardiac muscle cell. In words: Cytoprotective activity against OGD-induced myocardial ischemic injury in neonatal rat primary cardiomyocytes assessed as decrease in cellular damage at 1 uM preincubated for 12 hrs followed by exposure to OGD condition for 3 hrs. It is filed as functional, cell-based. To be noted: time 15.0 hrs.
Test [14] has as its system Mus musculus. Kind of test: Cardioprotective activity in ISO-induced heart failure C57BL/6J mouse assessed as fractional shortening in heart at 5 mg/kg/day, po for 14 days by echocardiography (reference value: 24.49 +/- 1.49 %). The following applies: time 14 day. It is filed as functional.
The subject of test [15] is Mus musculus. In words: Cardioprotective activity in ISO-induced heart failure C57BL/6J mouse assessed as […] in fractional shortening in heart at 20 mg/kg/day, po for 14 days by echocardiography. In kind it is functional, organism-based. The following applies: time 14.0 day.
Test [16] relates to Mus musculus. Kind of test: Inhibition of cardiomyocyte hypertrophy in ISO-induced heart failure C57BL/6J mouse at 20 mg/kg/day, po for 14 days. In kind it is functional, organism-based. To be noted: time 14.0 day.
The subject of test [17] is Cardiac muscle cell. In words: Cytoprotective activity against OGD-induced myocardial ischemic injury in neonatal rat primary cardiomyocytes assessed as decrease in cellular damage preincubated for 12 hrs followed by exposure to OGD condition for 3 hrs. It is filed as functional, cell-based. The following applies: time 15.0 hrs.
The test system of test [18] is Mus musculus. Kind of test: Cardioprotective activity in ISO-induced heart failure C57BL/6J mouse assessed as […] in ejection fraction in heart at 20 mg/kg/day, po for 14 days by echocardiography. In kind it is functional, organism-based. To be noted: time 14.0 day.
In test [19] the test system is H9c2. In words: Cytoprotective activity against OGD-induced myocardial ischemic injury in rat H9c2 cells assessed as cell viability at 100 uM preincubated for 12 hrs followed by exposure to OGD condition for 3 hrs by CCK8 assay (reference value: 49.23 to 50.05 %). In kind it is functional. The following applies: time 15 hrs, read-out: Activity.

On to `CC(C)(C)c1ccc(C(=O)NC[C@]23O[C@H]2[C@@H](O)[C@@H]2C=CO[C@@H](O[C@@H]4O[C@H](CO)[C@@H](O)[C@H](O)[C@H]4O)[C@@H]23)cc1`, for which the inhibition result in test [1] is “Active”. In addition, the result in test [2], in [3], in test [8], in test [9] and in test [13] was Active. The Activity in [4] is listed as 53.73%; in test [5] it was 27.5%; in test [11], “Active; Exhibited Superior Protective Efficacy Than Catal-Pol”; in test [12] it was 55.41%; in [14], 28.23%. Moreover, the viability at 5 µM in [6] was found to be 60.7%. For the same compound, in test [7], the viability at 50 µM stood at 70.9%. Also, the inhibition result in test [10] was “inactive”.

For the compound `OC[C@H]1O[C@@H](O[C@@H]2OC=C[C@H]3[C@H](O)[C@@H]4O[C@]4(CO)[C@@H]23)[C@H](O)[C@@H](O)[C@@H]1O` [CATALPOL], the outcome in test [15], in [2], in test [3], in [17] and in [18] was Active. For the same compound, the inhibition entry in test [16] is “Active”. Also, in [6], the viability at 5 µM stood at 50.6%. Further, the viability at 50 µM in test [7] was determined as 50.7%.

Turning to `O=C(NCCO[N+](=O)[O-])c1cccnc1` [NICORANDIL], in test [19], the viability at 100 µM was 58.6%.
